Test results from publication PMC3954873, “Enhanced Thermal Stability and Hydrolytic Ability of Bacillus subtilis Aminopeptidase by Removing the Thermal Sensitive Domain in the Non-Catalytic Region” (PLoS ONE, 2014).

Tests used:
BSAP = biological target: T1, BSAP (Bacillus subtilis, UniProt P25152); test: steady-state hydrolysis kinetics, non-linear regression; assay type: biochemical; details: free enzyme; assay as in previous study, conditions not printed here
T1 construct: gene ywaD; host B. subtilis WB600; purified as in previous study
Excerpt: steady-state hydrolysis kinetics, non-linear regression on BSAP

BSAP-ΔPA = biological target: T2, BSAP-ΔPA (Bacillus subtilis, UniProt P25152, DEL101-225, form not given); test: as above; assay type: biochemical; details: free enzyme; assay as in previous study, conditions not printed here
T2 construct: gene ywaD; protease-associated domain (101-225) deleted by inverse PCR; 330 residues before signal peptide removal; plasmid PMA5, host B. subtilis WB600; purified from culture supernatant
Excerpt: steady-state hydrolysis kinetics, non-linear regression on BSAP-ΔPA

T2 sequence (P25152 other isoform, or with tags, fused parts or gaps DEL101-225): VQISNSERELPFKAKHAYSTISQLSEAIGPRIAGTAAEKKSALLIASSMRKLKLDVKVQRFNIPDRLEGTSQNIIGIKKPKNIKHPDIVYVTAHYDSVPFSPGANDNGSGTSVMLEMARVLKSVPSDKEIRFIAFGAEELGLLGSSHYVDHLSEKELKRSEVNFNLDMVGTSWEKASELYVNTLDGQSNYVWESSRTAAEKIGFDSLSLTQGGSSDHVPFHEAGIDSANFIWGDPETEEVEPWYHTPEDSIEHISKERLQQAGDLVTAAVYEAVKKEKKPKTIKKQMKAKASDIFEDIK
T1 sequence (P25152 32-455): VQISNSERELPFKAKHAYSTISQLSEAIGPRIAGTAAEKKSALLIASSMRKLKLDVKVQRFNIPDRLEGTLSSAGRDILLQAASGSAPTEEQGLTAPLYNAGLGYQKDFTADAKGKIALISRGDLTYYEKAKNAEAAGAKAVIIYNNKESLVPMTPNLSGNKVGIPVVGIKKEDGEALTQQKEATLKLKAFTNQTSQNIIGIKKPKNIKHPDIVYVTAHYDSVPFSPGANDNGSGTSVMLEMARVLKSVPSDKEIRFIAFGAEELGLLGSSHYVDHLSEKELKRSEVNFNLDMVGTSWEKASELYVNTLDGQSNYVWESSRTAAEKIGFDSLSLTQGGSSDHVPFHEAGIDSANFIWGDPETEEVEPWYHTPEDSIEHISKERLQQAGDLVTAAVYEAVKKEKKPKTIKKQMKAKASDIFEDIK

CC(C)C[C@H](N)C(=O)Nc1ccc([N+](=O)[O-])cc1 [Leu-pNA]
K m (BSAP): 2.52 ± 0.11 mmol | K m (BSAP-ΔPA): 2.43 ± 0.23 mmol
